Measurements published in patent publication US5985926A, “Method for inhibiting intracellular viral replication” (Cell Therapeutics, Inc., priority 1997, dated 1999).
Entries after “also recorded” stand apart in the source; their conditions may differ. Where two headings read alike, the source gives them in different places.

Tests used:
[1] = test system: HIV-1 in U1 cells (IL-6 mediated expression); experiment: IL-6-mediated HIV-1 p24 antigen expression in chronically infected U1 cells; format: cell-based, HIV-1; human cells
Description: (§1) FIG. 17 illustrates a dose response curves of CT2576 on constitutive, TNF-α, and IL-6-mediated expression of HIV-1 in a chronically infected U1 cell line (left Y-axis) and of CT3537 on HIV expression in PBL acutely infected with the JR-CSF primary isolate (right Y-axis). U1 cells were incubated for four days after the addition of CT2576 with or without TNF-α (20 pg/ml) or IL-6 (1 ng/ml). PBL were inoculated with HIV at 10 ng virus/10^6 cells/well and incubated with various concentrations of CT3537 for 7 days. Each data point represents the average expression levels of HIV-1 p24-antigen in the cell supernatants measured by ELISA from triplicate samples with error bar indicating the SD.
(§2) Stable cell lines 293tar, 293tat and 293tat2 were generated by transfections using conditions described in (Tate et al., FASEB J. 4:227-231, 1990) with the plasmid pHIV.AP alone or along with either pHIV.tat or pSV2tat72, respectively. The assay of HIV-1 p24 antigen expression in the chronically HIV-1-infected promonocytic line U1 after 4 days and in acutely infected peripheral blood lymphocytes (PBL) after 7 days were described (Peterson et al., J. Clin. Invest. 89:574-580, 1992, and Brighty et al., Proc Natl. Acad. Sci. USA 88:7802-7805, 1991).
This example illustrates that CT2576 inhibited both constitutive and cytokine-induced HIV expression in a chronically-infected U1 cell line. A chronically HIV-1 infected human promonocyte cell line, U1 (Poli et al., J. Exp. Med. 172:151-158, 1990), was used as a model to see if the inhibitory effect of CT2576 on HIV-LTR driven reporter gene expression could be extended to block HIV replication per se in infected cells. TNF-α and IL-6 have been reported to upregulate the expression of HIV-1 in U1 cells (Poli et al., Proc Natl. Acad. Sci. USA 91:108-112, 1994). U1 cells were plated onto 24-well microtiter plates to study the dose-response effect of CT2576 on the constitutive (10^4 cells/well), TNF-α or IL-6 mediated (2×10^3 cells/well) expression of HIV-1. […]

[2] = test system: HIV-1 strain JR-CSF in PBL; experiment: HIV-1 p24 antigen expression in acutely infected peripheral blood lymphocytes (PBL); format: cell-based, HIV-1; human cells; settings: Human immunodeficiency virus 1, Lymphocyte, clinical isolate
Description: as §1
as §2, with “1991). […]” for “1991).”

[3] = test system: HIV-LTR promoter in 293tat cells; experiment: HIV-LTR directed AP reporter expression in 293tat cells activated by tat and TNF-α; format: cell-based; settings: Homo sapiens
Description: 293tat cells, a cell line stably transfected with the expression plasmids pHIV.AP and pHIV.tat, were plated onto 96-well microtiter plates at 2000 cells per well. The media were changed the next day and CT2576 was added at the indicated concentrations to the fresh media with or without TNF-α (20 ng/ml). 2 μl of medium from each well was used for AP assay 24 hr later. After culture media were withdrawn for AP assay, cytotoxicity was measured for the same cell cultures using an indicator dye, Alamar Blue™, that would change color in response to the reduction potential of cell medium due to cell growth. The left y-axis refers to the absorbance value of the reduced form of Alamar Blue™ at 570 nm with the background absorbance at 600 nm from the oxidized form of Alamar Blue™ subtracted. Each data point represents the mean of triplicate samples with error bar indicating the standard deviation of the mean.
as §2
This example illustrates that CT2576 inhibited TNF-α and tat-activated HIV-LTR promoter directed expression in 293tat cells. Cell activation signals generated by interaction of ligands with receptors are eventually converted to changes in the pattern of gene expression. A reporter gene expression system under the control of the HIV-LTR promoter was set up to investigate compounds that inhibit signaling pathway for HIV activation in infected cells. […]

[4] = test system: phosphatidic acid (PA) subspecies in 293tat cells; experiment: PA composition of 293tat cells by HPLC; format: cell-based, human
Description: One must first quantitatively and qualitatively separate PAs from the other lipids found in serum by a chemical extraction of lipids and high performance liquid chromatography (HPLC) to separate and detect PAs. […] Briefly, the method of Bligh et al. involves an organic extraction of lipids from biological tissue homogenates or fluids. One volume of sample and three volumes of methanol:chloroform (2:1) are vigorously shaken for 2 min. One volume of chloroform is added and then shaken vigorously for 30 sec. One volume of water is added and then shaken vigorously for 30 sec. The mixture is filtered and the upper aqueous layer is discarded. The lower organic layer contains a mixture of lipid classes. The method of Folch et al. involves the extraction of lipids from biological tissue homogenates or body fluids. One volume of sample plus 20 volumes of chloroform:methanol (2:1) are vigorously shaken for 2 min. The mixture is filtered and an amount of 0.1 N KCl equal to 20% of the extraction mixture volume is added and the mixture is shaken vigorously for 2 min. The aqueous and organic phases are allowed to separate. The upper aqueous layer is discarded. The lower organic layer contains a mixture of lipid classes. […] This method involves separation of lipids into their major classes by normal phase (silica) high performance liquid chromatography (HPLC). A 5 micron, 25 cm×0.45 cm silica HPLC column is connected to a binary solvent delivery system followed with a UV detector. The lipid sample is injected on the column and a solvent gradient is run at 1.0 ml/min. The solvent gradient is hexane:isopropanol:water in the proportions 3:4:0.75 run isocratically for 3 min, then ramped to hexane:isopropanol:water in the proportions 3:4:1.4 in 15 min, then run isocratically at the same proportions for 15 min. Detection is at 206 nm.
One of the steps after cell activation involves the hydrolysis of phosphatidylcholine (PC), the major phospholipid of cellular membranes, by phospholipases C and D, leading to the generation of second messengers, such as PA and DG, in the signal transduction cascade.

CCCCCCCCNCC(O)CCCCCCCCCn1c(=O)c2c(ncn2C)n(C)c1=O (centres unmarked) [CT2576, 1-(11-octylamino-10-hydroxyundecyl)-3,7-dimethylxanthine]
IC50 ([1]; Human immunodeficiency virus 1, 96 h, read-out: IC50, IL-6 mediated HIV expression, U1 cells, 4 days): ~1 µM
IC50 ([1]; U1 cells, 4 days, read-out: IC50, IL-6 mediated HIV expression): < 1 µM
inhibition of IL-6 mediated HIV-1 expression (p24) ([1]; U1 cells, in words): inhibited
IC50 [2]: ~1 µM
inhibition at 12 µM ([3]; 24 h, 293tat cells, CT2576 12 μM, after TNF-α or IL-1β induction, read-out: decrease in AP activity after TNF-α or IL-1β induction): 83 to 90%
IC50 ([3]; read-out: IC50, TNF-α induced HIV-LTR directed AP expression, 293tat cells, with TNF-α (20 ng/ml)): ~10 µM
IC50 ([3]; read-out: IC50, tat-dependent HIV-LTR directed AP expression, 293tat cells, tat activation, without TNF-α): ~10 µM
effect on generation of myrPA species / turnover of PA subspecies [4]: affected the turnover of PA subspecies; also recorded: affects the generation of myrPA species
long chain unsaturated PA, share of far UV absorbing lipids after preincubation ([4]; 8 μM CT2576): 15%
long chain unsaturated PA, share of far UV absorbing lipids after 2 minutes TNF-α ([4]; 8 μM CT2576, 2 minutes of TNF-α): 20%
short chained saturated PA subspecies ([4]; preincubation with 8 μM CT2576): less after CT2576 preincubation than without treatment; also recorded: very little change with addition of TNF-α
